US20090325977A1 (priority 2004, published 2009)

Assays:
[1] = system: VEGF-stimulated endothelial cell proliferation (HUVEC); assay: HUVEC assay, VEGF-stimulated endothelial cell proliferation; assay type: cell-based; conditions: Homo sapiens
[2] = system: basal endothelial cell proliferation (HUVEC); assay: HUVEC assay, basal endothelial cell proliferation; assay type: cell-based; conditions: Homo sapiens, no VEGF stimulation
Calu-6 tumour xenograft = assay: Calu-6 tumour xenograft, in vivo solid tumour model; conditions: once-daily oral, 28 days
[3] = biological target: stem cell factor receptor tyrosine kinase (SCF RTK, c-kit) (Homo sapiens, UniProt P10721); assay: inhibition of c-kit; assay type: biochemical
Sequence of stem cell factor receptor tyrosine kinase (SCF RTK, c-kit) (P10721 26-976): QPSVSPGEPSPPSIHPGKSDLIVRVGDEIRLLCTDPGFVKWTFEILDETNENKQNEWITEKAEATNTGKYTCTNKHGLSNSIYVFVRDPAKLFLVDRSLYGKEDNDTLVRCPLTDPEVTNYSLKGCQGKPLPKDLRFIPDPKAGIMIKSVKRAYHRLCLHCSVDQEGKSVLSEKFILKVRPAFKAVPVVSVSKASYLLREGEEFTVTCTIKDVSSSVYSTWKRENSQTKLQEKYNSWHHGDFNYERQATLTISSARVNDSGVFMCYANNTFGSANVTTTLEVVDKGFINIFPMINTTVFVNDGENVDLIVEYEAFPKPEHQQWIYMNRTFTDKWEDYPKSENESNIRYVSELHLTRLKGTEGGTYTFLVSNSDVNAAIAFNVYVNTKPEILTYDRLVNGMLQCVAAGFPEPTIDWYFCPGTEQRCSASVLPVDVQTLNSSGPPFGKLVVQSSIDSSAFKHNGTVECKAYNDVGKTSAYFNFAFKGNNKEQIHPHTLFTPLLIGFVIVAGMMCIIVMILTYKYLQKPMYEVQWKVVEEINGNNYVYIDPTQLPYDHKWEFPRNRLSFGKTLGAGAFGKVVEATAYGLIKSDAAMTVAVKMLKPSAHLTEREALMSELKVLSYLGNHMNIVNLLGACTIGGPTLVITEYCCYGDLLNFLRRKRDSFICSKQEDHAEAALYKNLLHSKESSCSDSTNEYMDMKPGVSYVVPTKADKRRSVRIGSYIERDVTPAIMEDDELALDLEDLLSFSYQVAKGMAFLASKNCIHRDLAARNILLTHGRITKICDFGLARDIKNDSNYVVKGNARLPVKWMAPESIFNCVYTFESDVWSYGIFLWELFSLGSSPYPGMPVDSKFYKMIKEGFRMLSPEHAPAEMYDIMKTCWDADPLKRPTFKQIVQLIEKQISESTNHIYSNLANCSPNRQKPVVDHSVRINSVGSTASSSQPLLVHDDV

MG63 cells = MG63 cells stimulated by PDGF-AA; read-out: IC50, PDGFR-α dependent cellular proliferation; cited from earlier work

COc1cc2c(Oc3ccc4[nH]c(C)cc4c3F)ncnc2cc1OCCCN1CCCC1 [AZD2171, 4-(4-fluoro-2-methyl-1H-indol-5-yloxy)-6-methoxy-7-(3-(pyrrolidin-1-yl)propoxy)quinazoline]
IC50 [1]: 0.4 ± 0.2 nM
IC50 [2]: > 500 nM
inhibition of Calu-6 tumour xenograft growth (Calu-6 tumour xenograft; 1.5 mg/kg/day, P<0.01): 49%
inhibition of Calu-6 tumour xenograft growth (Calu-6 tumour xenograft; 3 mg/kg/day, P<0.0001): 69%
inhibition of Calu-6 tumour xenograft growth (Calu-6 tumour xenograft; 6 mg/kg/day, P<0.0001): 91%
inhibition of c-kit [3]: inhibits c-kit
IC50 (MG63 cells): 40 nM
